Experimental data from patent US4749712A, “Antiinflammatory and/or analgesic 5-alkylthiophenes” (E. I. Du Pont de Nemours and Company, priority 1984, dated 1988).
Where two headings read alike, the source gives them in different places.

Columns and labels:
[1] = tested on: adjuvant-induced arthritis in rats; assay: Established Adjuvant-Induced Arthritis in Rats; assay type: in vivo, rat (male Charles River Lewis); details: for ED50: 24 h, read-out: Adjuvant Arthritis ED50 (effective dose for 50% decrease from control paw volume)
[2] = tested on: phenylquinone writhing in mice; assay: Phenylquinone Writhing Test (analgesic activity); assay type: in vivo, mouse (female white mice); details: read-out: Phenylquinone Writhing (PQW) ED50 (effective analgesic dose for 50% of the mice)
Protocol: Phenylquinone Writhing Test
A test compound suspended in 1% methylcellulose was given orally to fasted (17-21 hours) female white mice, 5-20 animals per double blind test. Aqueous (0.01% phenyl-p-benzoquinone) phenylquinone, 0.20 ml per mouse, was injected intraperitoneally 6 minutes before observations were begun.

[3] = mouse, oral, phenylquinone i.p. 6 minutes before 10 minutes observation
[4] = rat, oral gavage, 7 daily doses, paw volume one day after last dose

## CC(=O)Oc1ccccc1C(=O)O [Aspirin, reference compound]
[1]; Rattus norvegicus, po
  ED50: 305 mg/kg

## COc1ccc(-c2cc(C)sc2-c2ccc(OC)cc2)cc1 [Example 1, 5-Methyl-2,3-bis(4-methoxyphenyl)thiophene]
[2]; [3]
  ED50: 78 mg/kg
[1]; [4]
  ED50: 60 mg/kg

## CCC(C)c1cc(-c2ccc(OC)cc2)c(-c2ccc(OC)cc2)s1 (stereo not drawn) [Example 2, 5-(1-Methylpropyl)-2,3-bis(4-methoxyphenyl)thiophene]
[2]; [3]
  ED50: 5.5 mg/kg
[1]; [4]
  ED50: 29 mg/kg

## COc1ccc(-c2cc(C3CCCCC3)sc2-c2ccc(OC)cc2)cc1 [Example 3, 5-Cyclohexyl-2,3-bis(4-methoxyphenyl)thiophene]
[2]; [3]
  ED50: 47 mg/kg
[1]; rat, oral gavage, 7 daily doses, at 45 mg/kg
  percent reduction in paw volume at the indicated dose: 34%

## COc1ccc(-c2cc(C(C)(C)C)sc2-c2ccc(OC)cc2)cc1 [Example 4, 5-(1,1-Dimethylethyl)-2,3-bis(4-methoxyphenyl)thiophene]
[2]; [3]
  ED50: 1.4 mg/kg
[1]; [4]
  ED50: 36 mg/kg

## CC(C)Cc1ccc(C(C)C(=O)O)cc1 (stereo not drawn) [Ibuprofen, reference compound]
[2]; [3]
  ED50: 10 mg/kg
[1]; [4]
  ED50: 100 mg/kg

## COc1ccc2c(c1)c(CC(=O)O)c(C)n2C(=O)c1ccc(Cl)cc1 [Indomethacin, reference compound]
[2]; Mus musculus, po
  ED50: 0.35 mg/kg
[1]; Rattus norvegicus, po
  ED50: 0.3 mg/kg

## CCCCC1C(=O)N(c2ccccc2)N(c2ccccc2)C1=O [Phenylbutazone, reference compound]
[2]; [3]
  ED50: 80 mg/kg
[1]; [4]
  ED50: 10 mg/kg
